Measurements published in paper PMC3632115 (Nucleic Acids Research, 2013).

Molecular target: T1, Pif1 (Saccharomyces cerevisiae, UniProt P07271)
T1 sequence (P07271 46-859): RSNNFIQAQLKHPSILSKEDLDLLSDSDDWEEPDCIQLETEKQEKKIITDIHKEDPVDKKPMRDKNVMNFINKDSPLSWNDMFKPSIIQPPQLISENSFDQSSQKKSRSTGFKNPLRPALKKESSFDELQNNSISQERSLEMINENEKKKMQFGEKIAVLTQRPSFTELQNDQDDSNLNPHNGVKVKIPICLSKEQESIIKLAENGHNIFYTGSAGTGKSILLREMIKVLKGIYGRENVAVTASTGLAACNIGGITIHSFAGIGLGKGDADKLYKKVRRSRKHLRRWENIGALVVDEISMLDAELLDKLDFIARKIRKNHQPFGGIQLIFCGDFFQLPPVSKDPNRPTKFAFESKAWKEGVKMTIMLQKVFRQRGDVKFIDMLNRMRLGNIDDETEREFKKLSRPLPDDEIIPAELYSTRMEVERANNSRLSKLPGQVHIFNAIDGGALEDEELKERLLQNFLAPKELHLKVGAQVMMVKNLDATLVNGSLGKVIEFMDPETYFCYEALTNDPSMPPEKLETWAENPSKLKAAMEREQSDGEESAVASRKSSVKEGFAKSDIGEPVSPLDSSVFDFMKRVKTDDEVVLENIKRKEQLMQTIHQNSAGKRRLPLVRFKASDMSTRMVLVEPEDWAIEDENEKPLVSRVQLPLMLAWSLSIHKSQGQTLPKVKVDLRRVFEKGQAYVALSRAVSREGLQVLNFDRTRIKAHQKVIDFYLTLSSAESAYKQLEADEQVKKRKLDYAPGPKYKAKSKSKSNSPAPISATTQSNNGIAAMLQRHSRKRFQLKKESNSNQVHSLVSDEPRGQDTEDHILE
Test: stopped-flow Cy3 fluorescence, dissociation of pre-formed Pif1-dT20-Cy3 complex
Type: binding
Settings: Buffer T200 (200 mM NaCl, pH 8.3, 5 mM MgCl2), 22°C; 1 mM ADP, 0.1 mg/ml heparin

Nc1ncnc2c1ncn2[C@@H]1O[C@H](COP(=O)(O)OP(=O)(O)O)[C@@H](O)[C@H]1O [ADP]
apparent rate of dissociation: This is true also for ADP, the product of ATP hydrolysis (Figure 1b, green)
